These results are taken from US20160046616A1, “NRF2 SMALL MOLECULE INHIBITORS FOR CANCER THERAPY” (THE JOHNS HOPKINS UNIVERSITY, priority 2013, published 2016).

The test system of experiment [1] is A549 NRF2-ARE-Fluc stable cell line. The experiment in a line: A549 Nrf2 assay: NRF2-ARE firefly luciferase reporter gene assay. Type of experiment: cell-based. The following applies: Homo sapiens, read-out: Potency of inhibition, A549. An excerpt: A549, the parental cell line, is a non-small-cell lung cancer (NSCLC) cell line with loss-of-function (LOF) Keap1 activity, thus NRF2 transcription factor constitutively translocates into the nucleus to activate the expression of downstream target genes of NRF2. A firefly luciferase reporter (Fluc) construct driven by a minimal promoter of NRF2-specific anti-oxidant responsive element (ARE) is stably expressed in the A549 cells. Compounds that reduce the translocation of NRF2 into the nucleus or prevent the interaction between NRF2 and ARE will lead to a decrease in luciferase activity.
The final concentration of DMSO was maintained at 0.46%. Control compounds Budesonide and Staurosporine were both added at a concentration of 2 mM and Budesonide also was added as a 1:10 titration, starting at 200 μM, to achieve dose-response. After an 18-24 hour incubation at 37° C., 95% humidity, and 5% CO2, 1 μL of 5× CellTiter-Fluor non-lytic cell viability assay reagent (Promega, Madison, Wis.) was added into the each well of the plates. The plates were then incubated for 30 minutes at room temperature before they were read on a ViewLux plate imager (Perkin Elmer, Waltham, Mass.) using an excitation wavelength of 405 nm and an emission wavelength of 525 nm.
A cell based reporter assay approach was used for the identification of agents that could inhibit Nrf2 mediated gene expression (FIG. 1). A549-ARE-luciferase cells express the luciferase gene driven by a minimal promoter and an enhancer element containing an NRF2 binding site (Antioxidant Response Element, ARE).
(§1) Representative compounds were assayed to assess the potency of inhibition in an A549 NRF2-ARE-Fluc stable cell line (A549 Nrf2 assay), in an H838 NRF2-ARE-Fluc stable cell line (H838 Nrf2 assay), and in an H1437 NRF2-ARE-Fluc stable cell line (H1437 Nrf2 assay) (see Table 3).

The subject of experiment [2] is H1437 NRF2-ARE-Fluc stable cell line. The experiment in a line: H1437 Nrf2 assay: NRF2-ARE firefly luciferase reporter gene assay. It counts as cell-based. The settings on record: Homo sapiens, NCI-H1437, H1437 NRF2-ARE-Fluc stable cell line; read-out: Potency of inhibition, H1437.
Text: H1437 is another NSCLC cell line with LOF Keap1 activity and constitutive translocation of NRF2 into the nucleus. A firefly luciferase reporter construct driven by a minimal promoter of NRF2-specific ARE is stably expressed in the H1437 cells. This cell line was used as a confirmation assay to make sure hits identified from primary screening and that passed counterscreen assays worked in different cell types with a constitutively active NRF2 pathway (deficiency in Keap1).
This assay was very similar to the primary assay except that the cell line was changed. […] The final concentration of DMSO was maintained at 0.46%. Control compounds Budesonide and Staurosporine were both added at a concentration of 2 mM and Budesonide was also added as a 1:10 titration, starting at 200 μM, to achieve dose-response. After an 18-24 hour incubation at 37° C., 95% humidity, and 5% CO2, 1 μL of 5× CellTiter-Fluor non-lytic cell viability assay reagent (Promega, Madison Wis.) was added into the each well of the plates. The plates were then incubated for 30 minutes at room temperature before they were read on a ViewLux plate imager (Perkin Elmer, Waltham Mass.) using an excitation wavelength of 405 nm and an emission wavelength of 525 nm.
as §1
For orientation: In a reporter assay the amount or activity of a reporter protein is the signal.

On to `Cc1ccccc1C(=O)N1CCc2cc(-c3ccc(NC(=O)Cc4ccccc4)cn3)ccc21` [Compound 101], for which the IC50 in experiment [1] and in experiment [2] was 5 to 25 µM in each case.
With `O=C(Nc1ncc(Cc2ccccc2Cl)s1)c1ccn(-c2ccccc2)n1` [Compound 216], the IC50 in experiment [1] and in experiment [2] was 5 to 25 µM throughout.
Turning to `Cc1sc(NC(=O)Cc2ccc3c(c2)OCO3)nc1-c1ccc2c(c1)CCN2C(=O)c1ccccc1C(F)(F)F` [Compound 121], the IC50 in experiment [1] was under 5 µM; in experiment [2], over 25 µM.
For `Cc1ncccc1C(=O)N1CCc2cc(-c3nc(NC(=O)Cc4ccc5c(c4)OCO5)sc3C)ccc21` [Compound 139], in that order: 5 to 25 µM and under 5 µM.
For the molecule `O=C(Cc1ccccc1)Nc1cccc(-c2ccc3[nH]ncc3c2)n1` [Compound 91, N-(6-(1H-indazol-5-yl)pyridin-2-yl)-2-phenylacetamide], the IC50 in experiment [1] is 5 to 25 µM; in experiment [2], over 25 µM.
Consider `Cc1ccccc1C(=O)N1CCc2cc(-c3nc(NC(=O)CN4CCN(C)CC4)sc3C)ccc21` [Compound 72], for which the IC50 in experiment [1] was over 25 µM; in experiment [2] it was 5 to 25 µM.
For the molecule `O=C(Nc1ccc([S+](=O)([O-])O)cc1)c1ccc(CN2CCc3ccccc3C2)cc1` [compound 156], the IC50 in experiment [1] and in experiment [2] was over 25 µM throughout.
Take `O=C(Nc1ncc(Cc2ccc(C(F)(F)F)cc2)s1)c1ccn(-c2cccnc2)n1` [Compound 175]: the IC50 in experiment [1] and in experiment [2] was 5 to 25 µM in each case.
As to `Cc1ccccc1C(=O)N1CCc2cc(-c3nc(NC(=O)CC4CCOCC4)sc3C)ccc21` [Compound 84], the IC50 in experiment [1] and in experiment [2] was 5 to 25 µM each time.
For `O=C(CCCc1ccccc1)Nc1ncc(Cc2ccc(C(F)(F)F)cc2)s1` [Compound 108], the IC50 in experiment [1] and in experiment [2] was over 25 µM each time.
As for `Cc1cccc(Cn2ccc(C(=O)Nc3ncc(Cc4ccc(C(F)(F)F)cc4)s3)n2)c1` [Compound 189], the IC50 in experiment [1] was 5 to 25 µM; in experiment [2], under 5 µM.
For `Cc1sc(NC(=O)Cc2ccc3c(c2)OCO3)nc1-c1ccc2c(c1)CCN2C(=O)C1CCCCC1` [Compound 25], in that order: 5 to 25 µM and under 5 µM.
As for `Cc1ccccc1C(=O)N1CCc2cc(N3CCCC(N)C3)ccc21` (stereo not drawn) [Compound 94, (5-(3-aminopiperidin-1-yl)indolin-1-yl)(o-tolyl)methanone], the IC50 in experiment [1] and in experiment [2] was over 25 µM each time.
Take `O=C(Nc1ccc(S(=O)(=O)N2CCOCC2)cc1)c1ccc(CN2CCC(c3ccccc3)CC2)cc1` [Compound 205]: the IC50 in experiment [1] and in experiment [2] was under 5 µM each time.
Take `COc1ccc(CC(=O)Nc2nc(-c3ccc4c(c3)CCN4C(=O)c3cccnc3C)c(C)s2)cc1` [Compound 196]: the IC50 in experiment [1] and in experiment [2] was under 5 µM each time.
As to `O=C(Nc1ccc(Cl)c(S(=O)(=O)N2CCOCC2)c1)c1ccccc1` [compound 62], the IC50 in experiment [1] and in experiment [2] was 5 to 25 µM throughout.
In the case of `Cc1ccccc1C(=O)N1CCc2cc(-c3nc(NC(=O)CC4CCNCC4)sc3C)ccc21` [Compound 73], the IC50 in experiment [1] was over 25 µM; in experiment [2] it was 5 to 25 µM.
Regarding `Cc1cccnc1C(=O)N1CCc2cc(-c3nc(NC(=O)Cc4ccc5c(c4)OCO5)sc3C)ccc21` [Compound 141], the IC50 is under 5 µM in experiment [1] and over 25 µM in experiment [2].
The like results for `Cc1ccccc1S(=O)(=O)N1CCc2cc(-c3nc(NC(=O)Cc4ccc(Cl)cc4)sc3C)ccc21` [Compound 135] were, in that order, under 5 µM and 5 to 25 µM.
For the molecule `NC(=O)c1ccc(N2CCN(S(=O)(=O)c3ccccc3)CC2)c([N+](=O)[O-])c1` [Compound 39], the IC50 in experiment [1] is under 5 µM; in experiment [2], 5 to 25 µM.
For `O=C(Nc1ncc(Cc2ccc(C(F)(F)F)cc2)s1)c1ccn(CCN2CCOCC2)n1` [Compound 231], in that order: 5 to 25 µM and under 5 µM.
With `Cc1onc(-c2ccccc2)c1C(=O)N1CCc2cc(-c3nc(NC(=O)Cc4ccc5c(c4)OCO5)sc3C)ccc21` [Compound 160], the IC50 in experiment [1] and in experiment [2] was over 25 µM in each case.
Regarding `Cc1ccccc1C(=O)N1CCc2cc(-c3nc(NC(=O)Cc4ccc(OCCOCCOCCN)cc4)sc3C)ccc21` [Compound 239, 2-(4-(2-(2-(2-aminoethoxy)ethoxy)ethoxy)phenyl)-N-(5-methyl-4-(1-(2-methylbenzoyl)indolin-5-yl)thiazol-2-yl)acetamide], the IC50 in experiment [1] was over 25 µM; in experiment [2] it was 5 to 25 µM.
For `Cc1ccc(NC(=O)c2ccc(S(=O)(=O)N(C)c3ccccc3)cc2)cc1S(=O)(=O)N1CCOCC1` [Compound 46], in that order: under 5 µM and 5 to 25 µM.
For the molecule `Cc1ncoc1C(=O)N1CCc2cc(-c3nc(NC(=O)Cc4ccc5c(c4)OCO5)sc3C)ccc21` [Compound 181], the IC50 in experiment [1] is under 5 µM; in experiment [2] it was over 25 µM.
For `Cc1ccccc1S(=O)(=O)N1CCc2cc(-c3nc(NC(=O)Cc4cccc(Cl)c4)sc3C)ccc21` [Compound 125], in that order: under 5 µM and 5 to 25 µM.
In the case of `Cc1sc(NC(=O)Cc2ccc3c(c2)OCO3)nc1-c1ccc2c(c1)CCN2C(=O)c1cnoc1C(C)C` [Compound 158], the IC50 is under 5 µM in experiment [1] and over 25 µM in experiment [2].
For `Cc1ccccc1C(=O)N1CCc2cc(-c3nc(NC(=O)CN4CCN(C(=O)C5CC5)CC4)sc3C)ccc21` [Compound 212], in that order: under 5 µM and under 5 µM.
For `Cc1cc(Cn2ccc(C(=O)Nc3ncc(Cc4ccc(C(F)(F)F)cc4)s3)n2)ccn1` [Compound 191], in that order: under 5 µM and under 5 µM.
For `CN1CCN(S(=O)(=O)c2ccc(NC(=O)c3ccc(CN4CCc5ccccc5C4)cc3)cc2)CC1` [compound 146], in that order: under 5 µM and over 25 µM.
As to `Cc1sc(NC(=O)Cc2ccc3c(c2)OCO3)nc1-c1ccc2c(c1)CCN2C(=O)c1ccccc1C(C)C` [Compound 138], the IC50 in experiment [1] was under 5 µM; in experiment [2], over 25 µM.
With `Cc1ccccc1C(=O)N1CCc2cc(-c3nc(NC(=O)CN4CCCCC4)sc3C)ccc21` [Compound 66], the IC50 in experiment [1] and in experiment [2] was 5 to 25 µM each time.
For the molecule `O=C(Nc1ncc(Cc2ccc(C(F)(F)F)cc2)s1)c1ccc(-c2ccc([N+](=O)[O-])cc2)o1` [Compound 22], the IC50 in experiment [1] and in experiment [2] was 5 to 25 µM in each case.
In the case of `CCN(CC)S(=O)(=O)c1cccc(C(=O)Nc2ccc(C#N)cc2)c1` [Compound 32], the figures for the IC50 in experiment [1] and in experiment [2] were under 5 µM and 5 to 25 µM, respectively.
The like results for `O=C(CCc1ccccc1)Nc1ncc(Cc2ccc(C(F)(F)F)cc2)s1` [Compound 74] were, in that order, over 25 µM and over 25 µM.
`COc1ccc(CC(=O)Nc2nc(-c3ccc4c(c3)CCN4C(=O)C3CC3)c(C)s2)cc1` [Compound 195]: the figures for the IC50 in experiment [1] and in experiment [2] were under 5 µM and 5 to 25 µM, respectively.
With `O=C(Nc1ccc(S(=O)(=O)N2CCNCC2)cc1)c1ccc(CN2CCc3ccccc3C2)cc1` [compound 154], the IC50 was 5 to 25 µM in experiment [1] and over 25 µM in experiment [2].
The like results for `O=C(Nc1ncc(Cc2ccc(C(F)(F)F)cc2)s1)c1c[nH]c(-c2ccccc2)n1` [Compound 118] were, in that order, 5 to 25 µM and over 25 µM.
For `O=C(Nc1ncc(Cc2ccc(C(F)(F)F)cc2)s1)c1ccc(-c2ccccc2)o1` [Compound 19], in that order: 5 to 25 µM and over 25 µM.
The like results for `Cc1ccccc1S(=O)(=O)N1CCc2cc(-c3nc(NC(=O)Cc4cccnc4)sc3C)ccc21` [Compound 130] were, in that order, under 5 µM and under 5 µM.
For `CN(C1CCOCC1)S(=O)(=O)c1ccc(NC(=O)c2ccc(CN3CCc4ccccc4C3)cc2)cc1` [compound 167], the IC50 in experiment [1] was under 5 µM; in experiment [2], 5 to 25 µM.
The like results for `O=C(Nc1ncc(Cc2cccc(C(F)(F)F)c2)s1)c1ccc(-c2cccc([N+](=O)[O-])c2)o1` [Compound 20] were, in that order, 5 to 25 µM and under 5 µM.
